# Assays:
# 4T1 cells = assay type: cell-based, mouse; conditions: highest dose 100 μM, FIG. 8
# Procedure: The cytotoxicity tests are carried out in cell culture in 96-well plates, on the 4T1 cell line. The cells are maintained in a DMEM culture medium supplemented with 10% fetal calf serum (control condition) or placed in the presence of an MTT solution (3-(4,5-dimethylthiazol-2-yl)-2,5-diphenyl tetrazolium bromide) at 1 mg/ml in DMEM medium supplemented with 10% fetal calf serum (100 μl per well). The cells are incubated at 37° C. and 5% CO2 for 4 hours. The reaction is stopped by the addition of 100 μl of a solution containing 10% of SDS and 0.01 M of HCl. The cells are placed in an incubator at 37° C. and 5% CO2 for 2 hours. The absorbance is measured between 570 and 590 nm. The negative control is performed on a well without cells, containing 200 μl of a 1 mg/ml solution of MTT diluted in DMEM culture medium supplemented with 10% fetal calf serum. The average of the measurements obtained is compared with the control wells: (average value of the compounds treated/average value of the controls)*100=% of the average value.
# The 4T1 cells are derived from tumors of the mammary gland in mice.
# In order to study the cytotoxic effects of althiazide in vitro, we analyze the cell death induced by treatment with althiazide by tetrazolium salt labeling MTT (3-(4,5-dimethylthiazol-2-yl)-2,5-diphenyltetrazolium bromide) on 4T1 cells. The amount of living cells in the well is assayed by spectrometry. The results are compared with those obtained after treatment with the control solution (FIG. 8). In this test, we observe a very low mortality of cells after treatment with althiazide (80% of living cells at the highest dose 100 μM). Cells treated with dasatinib have a much higher mortality rate, at much lower doses (80% live cells at the lowest 10 nM dose and 20% live cells at 100 μM).
# MDA-MB-231 cells = assay: Migration test on MDA-MB-231 cells (scratch test); assay type: cell-based, human; conditions: 10, 50 and 100 μM, 18 h migration, FIG. 10
# Procedure: Cell migration assays on the MDA-MB-231 cell line are performed in vitro in 96-well plates. The MDA-MB-231 cells were seeded at the density of 50000 cells per well, to form a monolayer. The cells are maintained in a DMEM culture medium supplemented with 0.2% fetal calf serum and incubated at 37° C., 5% CO2 and 1% O2 for 24 hours. The cell monolayer is injured with a pipette tip. The cells are then rinsed with PB S to remove the cells in suspension and the different treatments are added, as well as DMEM supplemented with 10% FCS. The cells are incubated for 18 hours at 37° C., 5% CO2 and 20% O2.
# A first series of images of each well (center of the well) was carried out at the beginning of the experiment (t=0) and after 18 hours of migration (t=18) using a 4× objective Nikon microscope. The images were analyzed using ImageJ software (National Institutes of Health, USA).
# The treatments were carried out in triplicate and the manipulation was carried out 3 times. […]
# A first series of images of each well (center of the well) is performed at the beginning of the experiment (t=0) and after 18 h of migration (t=18) using a Nikon microscope −4× lens. The images were analyzed using Image J software (National Institute of Health, USA)
# SNAIL = assay: q-RT-PCR expression of EMT markers in MDA-MB-231 cells under hypoxia: SNAIL; assay type: cell-based, human; conditions: althiazide 100 μM, hypoxic conditions (1% O2), vs control, FIG. 11
# Procedure: (§1) The cell cultures are carried out on human breast cancer epithelial cell lines MDA-MB-231 (HTB-26™), resulting from metastases present in a pleural effusion of a patient with a mammary adenocarcinoma. This line is used as a triple negative cancer cell model (no expression of ER-type nuclear estrogen receptors, nuclear progesterone receptors or overexpression of the oncogene encoding HER2 protein (Human Epidermal Growth factor Receptor-2).
# (§2) The cells were cultured in DMEM medium (Eurobio, Fance) supplemented with 10% fetal calf serum (FCS) (Eurobio, Fance) at 37° C., 5% CO2. The medium was changed every 3 days.
# (§3) The cells were placed in a controlled atmosphere at 1% oxygen 24 hours before the application of the different treatments.
# (§4) The expression of the mRNAs is measured by the q-RT-PCR method. The cells were seeded at the density of 500,000 cells/well in 6-well plates. After 24 hours at 37° C., 5% CO2 and 1% O2, the medium was renewed and added the various treatments. RNA was isolated using TRI Reagent® (sigma), assayed and retro-transcribed into complementary DNA using the PrimeScript RT Reagent Kit (Takara). The expression levels of the mRNA of the genes of interest were determined by quantitative PCR (LightCycler® 480 Instrument II) with the primers listed in Table 2: […]
# (§5) The results are calculated using the Delta Delta Ct (Δ ΔCt) method.
# ZEB1 = assay: q-RT-PCR expression of EMT markers in MDA-MB-231 cells under hypoxia: ZEB1; assay type: cell-based, human; conditions: althiazide 100 μM, hypoxic conditions (1% O2), vs control, FIG. 11
# Procedure: as §1, §2, §3, §4, §5
# zebrafish embryo = conditions: in vivo, 24 h, 1 mM
# Procedure: The toxicity study is carried out over 72 hours. The embryos are treated at 25 hpf with the doses used for the test of chemical compounds of each of the compounds, in a 96-well plate, in a final volume of 100 μl of the embryonic growth medium. The embryos are incubated 72 h at 28° C. The medium is changed every 24 hours. The survival rate of embryos and the appearance of developmental defects are analyzed daily.
# At the same time, we analyzed the toxicity of althiazide after balancing with a solution containing althiazide at concentrations of 1 μM, 10 μM, 100 μM, 1000 μM for 24, 48 and 72 hours. The toxicity study was based on analysis of the percentage viability of the embryos after treatment. At concentrations of 1 μM, 10 μM and 100 μM, althiazide causes no toxicity even after 72 hours of treatment. A 50% toxicity is observed after treatment for 24 hours, the althiazide at the concentration of 1 mM.
structure (smiles),measurement,setting,value
C=CCSCC1Nc2cc(Cl)c(S(N)(=O)=O)cc2S(=O)(=O)N1 (racemic) [althiazide],living cells (MTT),4T1 cells,80%
same,decrease of the migration,MDA-MB-231 cells,~50%
same,change in expression of SNAIL,SNAIL,−19%
same,change in expression of ZEB1,ZEB1,−14%
same,toxicity (percentage viability of the embryos),zebrafish embryo,50%

# From US20230137849A1, “USE OF A COMPOUND OF THE DIURETICS CLASS FOR TREATING CANCER” (AZELEAD, priority 2017, published 2023)
